Experimental data reported in article PMC4457528, “Identification of Novel Small Molecule Inhibitors of Oncogenic RET Kinase” (PLoS ONE, 2015).
Like-named read-outs stand apart in the source and are kept apart here.

Columns and labels:
Test in all cases: KinomeScan kinase panel, single concentration 10 µM
Format in all cases: binding
[1] = target: T1, KinomeScan kinase panel (Homo sapiens, UniProt Q9Y2K2); conditions: 10 µM
T1 construct: purchased DiscoveRx (KinomeScan)

[2] = target: T2, KinomeScan kinase panel (Homo sapiens, UniProt Q9H2X6); conditions: HIPK2, 10 µM; read-out: score (%)
T2 construct: purchased DiscoveRx (KinomeScan)

[3] = target: T3, KinomeScan kinase panel (Homo sapiens, UniProt Q9UHD2); conditions: kinase TBK1; 10 µM; read-out: score (%)
T3 construct: purchased DiscoveRx (KinomeScan)

[4] = target: T4, KinomeScan kinase panel (Homo sapiens, UniProt P42336, E542K); conditions: PIK3CA(E542K), 10 µM; read-out: score (%)
T4 construct: purchased DiscoveRx (KinomeScan)

[5] = target: T5, KinomeScan kinase panel (Homo sapiens, UniProt P42336, E545A); conditions: PIK3CA(E545A), 10 µM; read-out: score (%)
T5 construct: purchased DiscoveRx (KinomeScan)

[6] = target: T6, KinomeScan kinase panel (Homo sapiens, UniProt P32298); conditions: GRK4, 10 µM; read-out: score (%)
T6 construct: purchased DiscoveRx (KinomeScan)

[7] = target: T7, KinomeScan kinase panel (Homo sapiens, UniProt Q13627); conditions: DYRK1A, 10 µM; read-out: score (%)
T7 construct: purchased DiscoveRx (KinomeScan)

[8] = target: T8, KinomeScan kinase panel (Homo sapiens, UniProt Q9UPZ9); conditions: ICK, 10 µM; read-out: score (%)
T8 construct: purchased DiscoveRx (KinomeScan)

[9] = target: T9, KinomeScan kinase panel (Homo sapiens, UniProt P42336, C420R); conditions: PIK3CA(C420R), 10 µM; read-out: score (%)
T9 construct: purchased DiscoveRx (KinomeScan)

[10] = target: T10, KinomeScan kinase panel (Homo sapiens, UniProt Q92630); conditions: DYRK2, 10 µM; read-out: score (%)
T10 construct: purchased DiscoveRx (KinomeScan)

[11] = target: T11, KinomeScan kinase panel (Homo sapiens, UniProt P42336, H1047L); conditions: PIK3CA(H1047L), 10 µM; read-out: score (%)
T11 construct: purchased DiscoveRx (KinomeScan)

[12] = target: T12, KinomeScan kinase panel (Homo sapiens, UniProt Q9Y2U5); conditions: MAP3K2, 10 µM; read-out: score (%)
T12 construct: purchased DiscoveRx (KinomeScan)

[13] = target: T13, KinomeScan kinase panel (Homo sapiens, UniProt Q15208); conditions: NDR1, 10 µM; read-out: score (%)
T13 construct: purchased DiscoveRx (KinomeScan)

[14] = target: T14, KinomeScan kinase panel (Homo sapiens, UniProt P42679); conditions: CTK, 10 µM; read-out: score (%)
T14 construct: purchased DiscoveRx (KinomeScan)

[15] = target: T15, KinomeScan kinase panel (Homo sapiens, UniProt P42336, Q546K); conditions: PIK3CA(Q546K), 10 µM; read-out: score (%)
T15 construct: purchased DiscoveRx (KinomeScan)

[16] = target: T16, KinomeScan kinase panel (Homo sapiens, UniProt Q9H422); conditions: HIPK3, 10 µM; read-out: score (%)
T16 construct: purchased DiscoveRx (KinomeScan)

[17] = target: T17, KinomeScan kinase panel (Homo sapiens, UniProt Q8WTQ7); conditions: GRK7, 10 µM; read-out: score (%)
T17 construct: purchased DiscoveRx (KinomeScan)

[18] = target: T18, KinomeScan kinase panel (Homo sapiens, UniProt P08581, Y1235D); conditions: MET(Y1235D), 10 µM
T18 construct: purchased DiscoveRx (KinomeScan)

[19] = target: T19, KinomeScan kinase panel (Homo sapiens, UniProt Q15835); conditions: GRK1, 10 µM; read-out: score (%)
T19 construct: purchased DiscoveRx (KinomeScan)

[20] = target: T20, KinomeScan kinase panel (Homo sapiens, UniProt P42336, H1047Y); conditions: PIK3CA(H1047Y), 10 µM; read-out: score (%)
T20 construct: purchased DiscoveRx (KinomeScan)

[21] = target: T21, KinomeScan kinase panel (Homo sapiens, UniProt Q13523); conditions: read-out: score (%)
T21 construct: purchased DiscoveRx (KinomeScan)

[22] = target: T22, KinomeScan kinase panel (Homo sapiens, UniProt P10721, L576P); conditions: KIT(L576P), 10 µM; read-out: score (%)
T22 construct: purchased DiscoveRx (KinomeScan)

[23] = target: T23, KinomeScan kinase panel (Homo sapiens, UniProt P00533, L858R/T790M); conditions: EGFR(L858R.T790M), 10 µM
T23 construct: purchased DiscoveRx (KinomeScan)

[24] = target: T24, KinomeScan kinase panel (Homo sapiens, UniProt Q9UEW8); conditions: kinase STK39; 10 µM; read-out: score (%)
T24 construct: purchased DiscoveRx (KinomeScan)

[25] = target: T25, KinomeScan kinase panel (Homo sapiens, UniProt O43283); conditions: LZK, 10 µM
T25 construct: purchased DiscoveRx (KinomeScan)

[26] = target: T26, KinomeScan kinase panel (Homo sapiens, UniProt O95382); conditions: ASK2, 10 µM; read-out: score (%)
T26 construct: purchased DiscoveRx (KinomeScan)

[27] = target: T27, KinomeScan kinase panel (Homo sapiens, UniProt Q52WX2); conditions: kinase SBK1; 10 µM; read-out: score (%)
T27 construct: purchased DiscoveRx (KinomeScan)

[28] = target: T28, KinomeScan kinase panel (Homo sapiens, UniProt O76039); conditions: CDKL5, 10 µM; read-out: score (%)
T28 construct: purchased DiscoveRx (KinomeScan)

[29] = target: T29, KinomeScan kinase panel (Homo sapiens, UniProt Q8IY84); conditions: NIM1, 10 µM; read-out: score (%)
T29 construct: purchased DiscoveRx (KinomeScan)

[30] = target: T30, KinomeScan kinase panel (Homo sapiens, UniProt Q13233); conditions: MAP3K1, 10 µM; read-out: score (%)
T30 construct: purchased DiscoveRx (KinomeScan)

[31] = target: T31, KinomeScan kinase panel (Homo sapiens, UniProt P08581, M1250T); conditions: MET(M1250T), 10 µM
T31 construct: purchased DiscoveRx (KinomeScan)

[32] = target: T32, KinomeScan kinase panel (Homo sapiens, UniProt Q9UBF8); conditions: PIK4CB, 10 µM; read-out: score (%)
T32 construct: purchased DiscoveRx (KinomeScan)

[33] = target: T33, KinomeScan kinase panel (Homo sapiens, UniProt P53779); conditions: JNK3, 10 µM
T33 construct: purchased DiscoveRx (KinomeScan)
T33 sequence (P53779 whole entry): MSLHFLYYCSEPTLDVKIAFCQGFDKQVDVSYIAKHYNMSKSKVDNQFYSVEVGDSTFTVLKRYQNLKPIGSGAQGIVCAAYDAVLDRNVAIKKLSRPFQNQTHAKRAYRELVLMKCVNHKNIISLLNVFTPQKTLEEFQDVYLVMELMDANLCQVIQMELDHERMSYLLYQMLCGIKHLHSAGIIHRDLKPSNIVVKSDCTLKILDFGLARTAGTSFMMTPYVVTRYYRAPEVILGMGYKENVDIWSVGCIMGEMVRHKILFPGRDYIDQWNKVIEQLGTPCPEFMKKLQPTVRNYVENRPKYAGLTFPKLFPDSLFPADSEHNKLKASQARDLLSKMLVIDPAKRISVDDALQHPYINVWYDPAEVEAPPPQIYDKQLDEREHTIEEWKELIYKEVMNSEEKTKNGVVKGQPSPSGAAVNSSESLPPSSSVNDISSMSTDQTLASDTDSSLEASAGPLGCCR

T2 sequence (Q9H2X6 whole entry): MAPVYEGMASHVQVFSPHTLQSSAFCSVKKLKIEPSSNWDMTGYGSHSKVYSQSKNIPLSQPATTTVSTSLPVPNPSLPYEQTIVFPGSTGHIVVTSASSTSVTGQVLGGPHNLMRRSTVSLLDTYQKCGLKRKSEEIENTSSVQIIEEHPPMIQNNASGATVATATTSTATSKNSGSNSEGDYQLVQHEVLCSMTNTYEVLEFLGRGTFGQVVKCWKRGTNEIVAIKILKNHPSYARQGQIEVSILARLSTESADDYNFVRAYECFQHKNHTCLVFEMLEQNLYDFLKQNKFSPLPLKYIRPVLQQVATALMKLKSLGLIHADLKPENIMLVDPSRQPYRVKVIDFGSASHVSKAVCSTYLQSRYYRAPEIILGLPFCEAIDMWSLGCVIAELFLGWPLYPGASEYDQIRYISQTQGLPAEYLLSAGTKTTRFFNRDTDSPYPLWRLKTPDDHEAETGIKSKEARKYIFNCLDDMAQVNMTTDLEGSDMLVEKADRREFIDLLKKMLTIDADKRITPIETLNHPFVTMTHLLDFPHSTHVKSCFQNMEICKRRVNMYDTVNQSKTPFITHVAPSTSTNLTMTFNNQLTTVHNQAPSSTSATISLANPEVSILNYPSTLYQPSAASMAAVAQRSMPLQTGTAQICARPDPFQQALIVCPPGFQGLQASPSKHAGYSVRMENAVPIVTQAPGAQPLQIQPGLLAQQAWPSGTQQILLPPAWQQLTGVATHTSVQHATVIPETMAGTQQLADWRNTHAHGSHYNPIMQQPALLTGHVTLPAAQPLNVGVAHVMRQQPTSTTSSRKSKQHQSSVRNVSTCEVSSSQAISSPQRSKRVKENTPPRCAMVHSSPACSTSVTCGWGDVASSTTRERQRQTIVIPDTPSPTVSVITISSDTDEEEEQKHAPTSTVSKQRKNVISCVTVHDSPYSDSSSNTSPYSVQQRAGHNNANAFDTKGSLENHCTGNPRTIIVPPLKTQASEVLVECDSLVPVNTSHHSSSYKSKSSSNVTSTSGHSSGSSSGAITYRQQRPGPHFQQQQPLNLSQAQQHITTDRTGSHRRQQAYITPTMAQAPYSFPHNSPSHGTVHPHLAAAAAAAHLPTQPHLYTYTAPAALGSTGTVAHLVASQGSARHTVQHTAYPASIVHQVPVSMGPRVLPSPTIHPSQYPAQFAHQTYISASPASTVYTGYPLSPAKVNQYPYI
T6 sequence (P32298 whole entry): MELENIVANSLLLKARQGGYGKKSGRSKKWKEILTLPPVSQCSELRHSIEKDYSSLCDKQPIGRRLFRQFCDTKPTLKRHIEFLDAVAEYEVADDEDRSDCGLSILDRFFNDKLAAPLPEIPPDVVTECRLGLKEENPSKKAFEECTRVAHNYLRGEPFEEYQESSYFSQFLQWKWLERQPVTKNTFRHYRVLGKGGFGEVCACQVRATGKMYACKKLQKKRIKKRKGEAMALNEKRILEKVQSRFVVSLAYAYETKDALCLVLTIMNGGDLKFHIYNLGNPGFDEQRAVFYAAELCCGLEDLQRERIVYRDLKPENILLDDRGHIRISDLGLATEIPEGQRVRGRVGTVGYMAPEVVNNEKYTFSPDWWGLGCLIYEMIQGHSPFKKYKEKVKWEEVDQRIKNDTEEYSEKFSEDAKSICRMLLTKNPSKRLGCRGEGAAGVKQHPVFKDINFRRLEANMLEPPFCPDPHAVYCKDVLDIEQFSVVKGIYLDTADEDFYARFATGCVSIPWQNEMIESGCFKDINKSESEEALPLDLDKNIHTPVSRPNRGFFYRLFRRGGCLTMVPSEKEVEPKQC
T30 sequence (Q13233 whole entry): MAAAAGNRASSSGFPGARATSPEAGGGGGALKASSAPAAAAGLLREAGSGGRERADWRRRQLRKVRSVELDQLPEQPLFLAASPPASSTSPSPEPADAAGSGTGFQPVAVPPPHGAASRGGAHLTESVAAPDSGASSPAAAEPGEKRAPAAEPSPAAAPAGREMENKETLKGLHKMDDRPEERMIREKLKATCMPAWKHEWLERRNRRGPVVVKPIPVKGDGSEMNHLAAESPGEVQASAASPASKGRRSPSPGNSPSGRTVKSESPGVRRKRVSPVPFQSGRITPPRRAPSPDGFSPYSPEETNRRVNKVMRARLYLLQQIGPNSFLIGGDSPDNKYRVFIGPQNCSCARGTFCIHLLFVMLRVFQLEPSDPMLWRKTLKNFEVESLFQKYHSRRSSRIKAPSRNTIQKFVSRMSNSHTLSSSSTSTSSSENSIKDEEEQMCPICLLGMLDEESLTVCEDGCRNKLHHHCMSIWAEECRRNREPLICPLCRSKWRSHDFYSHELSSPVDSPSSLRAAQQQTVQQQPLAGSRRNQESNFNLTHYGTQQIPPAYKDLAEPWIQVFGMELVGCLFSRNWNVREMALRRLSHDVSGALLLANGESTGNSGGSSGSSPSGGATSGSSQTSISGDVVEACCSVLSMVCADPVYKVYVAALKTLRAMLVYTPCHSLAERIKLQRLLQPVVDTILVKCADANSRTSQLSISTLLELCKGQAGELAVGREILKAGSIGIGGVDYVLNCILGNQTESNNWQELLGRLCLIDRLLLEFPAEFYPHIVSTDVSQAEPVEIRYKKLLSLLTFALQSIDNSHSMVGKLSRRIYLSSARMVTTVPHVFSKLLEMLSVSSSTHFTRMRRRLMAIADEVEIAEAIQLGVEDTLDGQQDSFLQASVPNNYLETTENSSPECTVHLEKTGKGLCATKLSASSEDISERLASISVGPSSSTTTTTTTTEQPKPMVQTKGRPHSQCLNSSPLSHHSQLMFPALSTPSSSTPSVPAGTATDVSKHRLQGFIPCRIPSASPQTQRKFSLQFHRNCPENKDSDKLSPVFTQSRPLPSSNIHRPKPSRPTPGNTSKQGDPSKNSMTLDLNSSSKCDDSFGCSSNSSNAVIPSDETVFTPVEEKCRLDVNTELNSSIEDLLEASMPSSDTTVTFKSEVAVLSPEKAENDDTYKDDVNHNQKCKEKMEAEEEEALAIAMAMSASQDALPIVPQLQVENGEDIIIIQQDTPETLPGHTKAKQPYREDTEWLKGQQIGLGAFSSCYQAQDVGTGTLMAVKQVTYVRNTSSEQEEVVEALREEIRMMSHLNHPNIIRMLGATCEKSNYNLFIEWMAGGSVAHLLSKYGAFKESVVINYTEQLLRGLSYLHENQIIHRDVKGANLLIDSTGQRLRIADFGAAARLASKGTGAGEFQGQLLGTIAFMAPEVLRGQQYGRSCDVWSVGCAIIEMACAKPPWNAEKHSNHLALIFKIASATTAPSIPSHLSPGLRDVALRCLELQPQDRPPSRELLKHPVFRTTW
T11 sequence (P42336 whole entry H1047L): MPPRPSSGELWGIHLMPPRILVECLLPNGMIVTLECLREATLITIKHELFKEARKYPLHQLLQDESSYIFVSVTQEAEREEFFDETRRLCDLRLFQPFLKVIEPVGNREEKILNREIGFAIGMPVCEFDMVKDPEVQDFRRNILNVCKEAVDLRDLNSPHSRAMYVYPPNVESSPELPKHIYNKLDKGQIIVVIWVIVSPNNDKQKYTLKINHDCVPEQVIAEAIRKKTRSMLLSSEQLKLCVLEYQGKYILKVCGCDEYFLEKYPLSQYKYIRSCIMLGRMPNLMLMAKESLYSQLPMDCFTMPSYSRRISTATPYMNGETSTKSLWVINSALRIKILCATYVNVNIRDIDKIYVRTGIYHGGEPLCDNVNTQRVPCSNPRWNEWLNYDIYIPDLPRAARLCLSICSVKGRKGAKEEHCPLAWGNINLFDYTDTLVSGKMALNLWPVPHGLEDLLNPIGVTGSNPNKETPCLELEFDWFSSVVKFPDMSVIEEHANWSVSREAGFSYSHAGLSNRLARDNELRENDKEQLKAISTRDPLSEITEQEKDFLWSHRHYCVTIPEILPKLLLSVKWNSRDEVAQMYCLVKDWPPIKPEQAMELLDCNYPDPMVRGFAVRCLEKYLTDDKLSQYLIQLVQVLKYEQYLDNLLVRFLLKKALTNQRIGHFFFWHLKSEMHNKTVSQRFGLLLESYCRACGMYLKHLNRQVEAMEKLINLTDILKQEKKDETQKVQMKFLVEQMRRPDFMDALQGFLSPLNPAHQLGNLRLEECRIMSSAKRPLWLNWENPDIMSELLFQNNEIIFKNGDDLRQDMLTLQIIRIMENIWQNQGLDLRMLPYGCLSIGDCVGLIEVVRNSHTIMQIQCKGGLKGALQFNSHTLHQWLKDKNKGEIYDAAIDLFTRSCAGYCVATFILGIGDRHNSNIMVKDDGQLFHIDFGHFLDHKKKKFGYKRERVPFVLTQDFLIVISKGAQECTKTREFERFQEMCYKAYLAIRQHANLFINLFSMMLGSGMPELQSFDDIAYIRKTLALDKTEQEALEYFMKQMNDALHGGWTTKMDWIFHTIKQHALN
T4 sequence (P42336 whole entry E542K): as the sequence (P42336 whole entry H1047L) above, with E542K, L1047H counted along it
T5 sequence (P42336 whole entry E545A): as the sequence (P42336 whole entry H1047L) above, with E545A, L1047H counted along it
T9 sequence (P42336 whole entry C420R): as the sequence (P42336 whole entry H1047L) above, with C420R, L1047H counted along it
T20 sequence (P42336 whole entry H1047Y): as the sequence (P42336 whole entry H1047L) above, with L1047Y counted along it
T15 sequence (P42336 whole entry Q546K): as the sequence (P42336 whole entry H1047L) above, with Q546K, L1047H counted along it

SMILES | remaining binding at 10 µM [2] [%] | remaining binding at 10 µM [3] [%] | remaining binding at 10 µM [4] [%] | remaining binding at 10 µM [5] [%] | remaining binding at 10 µM [6] [%] | remaining binding at 10 µM [7] [%] | remaining binding at 10 µM [8] [%] | remaining binding at 10 µM [9] [%] | remaining binding at 10 µM [10] [%] | remaining binding at 10 µM [11] [%] | remaining binding at 10 µM [12] [%] | remaining binding at 10 µM [13] [%] | remaining binding at 10 µM [14] [%] | remaining binding at 10 µM [15] [%] | remaining binding at 10 µM [16] [%] | remaining binding at 10 µM [17] [%] | score (%) [18] | remaining binding at 10 µM [19] [%] | remaining binding at 10 µM [20] [%] | remaining binding at 10 µM [22] [%] | also measured
CCN1CCN(Cc2ccc(NC(=O)c3ccc(C)c(NC(=O)c4cncc(-c5cccs5)c4)c3)cc2C(F)(F)F)CC1 [ALW-II-41-27] | > 30 | > 30 | > 30 | > 30 | > 30 | 0.15 | > 30 | > 30 | 18 | > 30 | 3.8 | > 30 | > 30 | > 30 | > 30 | 16 | nb (Hits values higher than 30% were considered negative (no binding: nb)) | > 30 | > 30 | 0 | score (%) ([1]; QSK): nb (Hits values higher than 30% were considered negative (no binding: nb)); remaining binding at 10 µM ([21]; PRP4, 10 µM): > 30%; score (%) [23]: nb (Hits values higher than 30% were considered negative (no binding: nb)); remaining binding at 10 µM [24]: > 30%; score (%) [25]: 15%; remaining binding at 10 µM [26]: > 30%; remaining binding at 10 µM [27]: > 30%; remaining binding at 10 µM [28]: > 30%; remaining binding at 10 µM [29]: > 30%; remaining binding at 10 µM [30]: > 30%; score (%) [31]: nb (Hits values higher than 30% were considered negative (no binding: nb)); remaining binding at 10 µM [32]: > 30%
CCN1CCN(Cc2ccc(NC(=O)c3ccc(C)c(/C=C/c4cnc5[nH]ccc5c4Cl)c3)cc2C(F)(F)F)CC1 [HG-6-63-01, (E)-3-(2-(4-chloro-1H-pyrrolo[2,3-b]pyridin-5-yl)vinyl)-N-(4-((4-ethylpiperazin-1-yl)methyl)-3-(trifluoromethyl)phenyl)-4-methylbenzamide] |  |  |  |  |  |  |  |  |  |  |  |  |  |  |  |  |  |  |  |  | score (%) [33]: nb (Hits values higher than 30% were considered negative (no binding: nb))
CCN1CCN(Cc2ccc(NC(=O)c3ccc(C)c(C#Cc4cccnc4)c3)cc2C(F)(F)F)CC1 [XMD15-44] | > 30 | 100 | 100 | 93 | > 30 | > 30 | > 30 | 72 | > 30 | 100 | 0.15 | 4 | > 30 | 100 | 18 | > 30 | nb (Hits values higher than 30% were considered negative (no binding: nb)) | > 30 | 81 | 0 | score (%) ([1]; kinase QSK): 70%; score (%) [33]: 0.95%; remaining binding at 10 µM ([21]; kinase PRP4, 10 µM): 54%; score (%) [23]: nb (Hits values higher than 30% were considered negative (no binding: nb)); remaining binding at 10 µM [24]: 89%; score (%) [25]: 7.4%; remaining binding at 10 µM [26]: 12%; remaining binding at 10 µM [27]: 88%; remaining binding at 10 µM [28]: 12%; remaining binding at 10 µM [29]: 97%; remaining binding at 10 µM [30]: > 30%; score (%) [31]: nb (Hits values higher than 30% were considered negative (no binding: nb)); remaining binding at 10 µM [32]: 100%
